In patent US20260271978A1, “USE OF FATTY ACIDS TO MODIFY FLAVOR” (Firmenich Incorporated, priority 2023, published 2026):

Legend:
[1] = Sensory panel rating of pea protein solution at 3% with fatty acid at 1000 ppm; settings: 1000 ppm in pea protein, 3 wt% in water, no sugar; mean of eight panelists, scale 0 to 5
Method: Liquid solutions of pea protein were prepared (3 percent by weight in water) without sugar added. Control and test samples were prepared. To the test sample 10-undecenoic acid was added at a concentration of 1000 ppm. The control and test samples were evaluated by eight sensory panelists to rate various characteristics of the control sample and the test sample on a scale from 0 to 5.

[2] = Sensory panel rating of pea protein solution at 3% with fatty acid at 700 ppm; settings: 700 ppm in pea protein, 3 wt% in water, no sugar; mean of eight panelists, scale 0 to 5
Method: Liquid solutions of pea protein were prepared (3 percent by weight in water) without sugar added. Control and test samples were prepared. To the test sample 10-undecenoic acid was added at a concentration of 700 ppm. The control and test samples were evaluated by eight sensory panelists to rate various characteristics of the control sample and the test sample on a scale from 0 to 5.

[3] = Sensory panel rating of fava bean protein solution at 6% with fatty acid at 400 ppm; settings: 400 ppm in fava bean protein, 6 wt% in water, no sugar; mean of 18 panelists, scale 0 to 5
Method: Liquid solutions of fava bean protein were prepared (6 percent by weight in water) without sugar added. Control and test samples were prepared. To the test sample 10-undecenoic acid was added at a concentration of 400 ppm. The control and test samples were evaluated by 18 sensory panelists to rate various characteristics of the control sample and the test sample on a scale from 0 to 5.

[4] = Sensory panel rating of oat/pea protein blend solution at 3% with fatty acid at 400 ppm; settings: 400 ppm in oat/pea protein blend (1:14 w/w), about 3 wt% in water, no sugar; mean of eight panelists, scale 0 to 5
Method: Liquid solutions of a blend of oat and pea protein (1:14 w/w) were prepared (about 3 percent by weight in water) without sugar added. Control and test samples were prepared. To the test sample 10-undecenoic acid was added at a concentration of 400 ppm. The control and test samples were evaluated by eight sensory panelists to rate various characteristics of the control sample and the test sample on a scale from 0 to 5.

[5] = Sensory panel rating of oat/pea protein blend solution at 6% with fatty acid at 400 ppm; settings: 400 ppm in oat/pea protein blend (1:28 w/w), about 6 wt% in water, no sugar; mean of eight panelists, scale 0 to 5
Method: Liquid solutions of a blend of oat and pea protein (1:28 w/w) were prepared (about 6 percent by weight in water) without sugar added. Control and test samples were prepared. To the test sample 10-undecenoic acid was added at a concentration of 400 ppm. The control and test samples were evaluated by eight sensory panelists to rate various characteristics of the control sample and the test sample on a scale from 0 to 5.

[6] = Sensory panel rating of chickpea protein solution at 6% with fatty acid at 700 ppm; settings: 700 ppm in chickpea protein, 6 wt% in water, no sugar; mean of 18 panelists, scale 0 to 5
Method: Liquid solutions of xchickpea protein were prepared (6 percent by weight in water) without sugar added. Control and test samples were prepared. To the test sample 10-undecenoic acid was added at a concentration of 700 ppm. The control and test samples were evaluated by 18 sensory panelists to rate various characteristics of the control sample and the test sample on a scale from 0 to 5.

In the case of `C=CCCCCCCCCC(=O)O` [10-undecenoic acid, Undec-10-enoic acid], the Astringent [1] is reported as 2.1, the Bitter [1] is reported as 1.7 and the “Cereal Note” value [1] is reported as 2.7. The Creaminess [1] was 2.1, the Fattiness [1] was 2.0 and the “Green/Vegetal Note” value [1] was 2.0. For the same compound, the Mouthcoating [1] was 2.9, the Sweet [1] was 3.4 and the Thickness [1] was 2.1. For the same compound, the Astringent [2] was 2.6, the Bitter [2] was 2.1 and the “Cereal Note” value [2] was 2.4. The Creaminess [2] was 1.8, the Fattiness [2] was 1.9 and the “Green/Vegetal Note” value [2] was 2.4. For the same compound, the Mouthcoating [2] was 2.3, the Sweet [2] was 3.1 and the Thickness [2] was 2.0. For the same compound, the Astringent [3] was 3.2, the Bitter [3] was 2.4 and the “Cereal Note” value [3] was 2.3. The Creaminess [3] was 1.2, the Fattiness [3] was 1.3 and the “Green/Vegetal Note” value [3] was 2.7. It also gave a Mouthcoating [3] of 1.8, a Sweet [3] of 2.3 and a Thickness [3] of 1.2. The Astringent [4] was 1.8, the Bitter [4] was 1.7 and the “Cereal Note” value [4] was 2.5. The Creaminess [4] was 1.6, the Fattiness [4] was 1.4 and the “Green/Vegetal Note” value [4] was 2.1. For the same compound, the Mouthcoating [4] was 2.0, the Sweet [4] was 3.6 and the Thickness [4] was 1.9. The Astringent [5] was 1.8, the Bitter [5] was 1.8 and the “Cereal Note” value [5] was 2.8. For the same compound, the Creaminess [5] was 2.4, the Fattiness [5] was 2.3 and the “Green/Vegetal Note” value [5] was 2.3. The Mouthcoating [5] was 3.3, the Sweet [5] was 3.1 and the Thickness [5] was 2.9. For the same compound, the Astringent [6] was 2.4, the Bitter [6] was 2.1 and the “Cereal Note” value [6] was 2.7. For the same compound, the Creaminess [6] was 2.3, the Fattiness [6] was 1.9 and the “Green/Vegetal Note” value [6] was 2.8. The Mouthcoating [6] was 2.4, the Sweet [6] was 2.8 and the Thickness [6] was 1.6.
